Like-named read-outs stand apart in the source and are kept apart here.

In assay [1] the test system is foodborne viruses. Particulars: cited from earlier work.
For assay [2], the system named is MNV-1. Type of assay: cell-based, murine norovirus.
Assay [3] relates to MNV-1. Nature of the assay: Sanitization wash of MNV-1 inoculated fresh produce, viral survivors by plaque assay. On the set-up: species or system murine norovirus. Conditions: for virus reduction: 2 min wash.
The subject of assay [4] is VSV. Type of assay: cell-based, vesicular stomatitis virus (VSV) Indian strain.
The subject of assay [5] is MNV-1. Description: Transmission electron microscopy of purified MNV-1 after surfactant treatment. On the set-up: species or system murine norovirus.
Assay [6] relates to VSV. The arrangement: species or system vesicular stomatitis virus (VSV) Indian strain. Conditions: 10,000 ppm; 37° C.; 72 hours.
[7] abbreviates: 200 ppm surfactant, 37° C., 72 hours.

With `OCl` [sodium hypochlorite], in assay [1], the “additional virus reduction over tap water washing” value was 0.48 logs and the virus reduction result is “less than 1 log”.

Turning to `CC(=O)OO` [peracetic acid], the “additional reduction over tap water washing” value in assay [1] is on record as 0.77 logs.

Consider `CCCCCCCCCCCCOS(=O)(=O)[O-].[Na+]` [SDS, sodium dodecyl sulfate], for which the “virus inactivation confirmed by plaque assay” value is “completely inactivated” in assay [2] and “completely inactivated” in assay [4] (purified VSV, 10,000 ppm, 37° C., 72 hours). Besides, the “reduction in MNV-1 titer” value in assay [2] (1,000 ppm surfactant, 37° C., 72 hours) is reported as “highest reduction in MNV-1 titer”. For the same compound, the virus reduction result in assay [2] (10,000 ppm surfactant, 37° C., 72 hours) is on record as “almost completely inactivated”; in assay [3] (lettuce, 50 ppm surfactant alone), 2.26 logs; in assay [3] (raspberries, 50 ppm surfactant alone), 2.63 logs; in assay [3] (strawberries, 50 ppm surfactant alone, room temperature) it was 3.14 logs; in assay [3] (strawberries, 100 ppm SDS alone) it was 3.41 logs; in assay [3] (strawberries, 200 ppm SDS alone), 3.12 logs. The virus reduction amounted to 3.51 logs in assay [3] (strawberries, 1,000 ppm SDS alone); 7.5 logs in assay [4] (setting [7]); 5 logs in assay [4] (200 ppm, 37° C., 4 hours). In addition, in assay [3] (fresh produce), the “enhancement of efficiency of virus reduction over traditional sanitizers (chlorine solution alone)” value is listed as 100 fold. For the same compound, the “damage to MNV-1 virus particles (electron microscopy)” value in assay [5] is “outer capsid of the MNV-1 was severely damaged and aggregated”. Moreover, in assay [6], the “damage to VSV virus particles (electron microscopy)” value is “viral envelope was damaged and the shape of VSV was severely distorted”.

On to NP40, for which the “virus reduction compared with tap water or chlorine solution” value in assay [3] (four types of fresh produce, 50 ppm surfactant alone) is on record as “increased virus reduction than did tap water or chlorine solution”. Moreover, the virus reduction in assay [4] came out at 10. logs.

In the case of Triton X-100, in assay [3], the “additional virus reduction than that of the chlorine solution” value is recorded as approximately 1 log. The virus reduction in assay [4] (setting [7]) came to 6.7 logs.

On to Tween 20, for which the virus reduction in assay [4] (setting [7]) turned out to be 2.7 logs.

The values above are taken from patent publication US20120219636A1, “ENHANCED REMOVAL OF VIRUSES FROM FRESH PRODUCE” (THE OHIO STATE UNIVERSITY, priority 2011, published 2012).
